Our source for the IC50 values is US10022354B2, “Pyrrolidine amide compounds as histone demethylase inhibitors” (GENENTECH, INC., priority 2014, dated 2018).

A word on the IC50: it is the concentration that inhibits the measured activity by half. A lower IC50 goes with greater potency in that assay.

The target in this assay is full length KDM5A enzyme (Homo sapiens (Human), UniProt P29375). Put plainly: KDM5 Enzyme Assay (KDM5A HTRF). The following applies: 2 nM full length KDM5A, 100 nM H3K4Me3 peptide, 1 uM 2-OG, 30 min room temperature. Type of assay: biochemical. The procedure:
Full length KDM5A enzyme was expressed and purified inhouse. Biotin-H3K4me3 peptide was purchased from New England Biolabs. HTRF reagents (containing Eu-labeled H3K4me1-2 antibody, and streptavidin-XL665) were purchased from Cis-Bio International. Plates were read on an Envision multi-label plate reader (Perkin Elmer).
The HTRF assay mixture contained 2 nM full length KDM5A enzyme, 100 nM H3K4Me3 peptide substrate, 1 uM 2-OG, 100 uM Fe^2+, 500 uM ascorbate. 50 mM HEPES pH 7.0 buffer, 0.01% Triton-X 100, 2 mM DTT, 0.25% DMSO at a final volume of 10 uL.
The plates were incubated at room temperature for 60 minutes and then read in the Envision plate reader.
In general terms: In TR-FRET formats the signal depends on donor and acceptor labels being close together.

Sequence of full length KDM5A enzyme (P29375 whole entry): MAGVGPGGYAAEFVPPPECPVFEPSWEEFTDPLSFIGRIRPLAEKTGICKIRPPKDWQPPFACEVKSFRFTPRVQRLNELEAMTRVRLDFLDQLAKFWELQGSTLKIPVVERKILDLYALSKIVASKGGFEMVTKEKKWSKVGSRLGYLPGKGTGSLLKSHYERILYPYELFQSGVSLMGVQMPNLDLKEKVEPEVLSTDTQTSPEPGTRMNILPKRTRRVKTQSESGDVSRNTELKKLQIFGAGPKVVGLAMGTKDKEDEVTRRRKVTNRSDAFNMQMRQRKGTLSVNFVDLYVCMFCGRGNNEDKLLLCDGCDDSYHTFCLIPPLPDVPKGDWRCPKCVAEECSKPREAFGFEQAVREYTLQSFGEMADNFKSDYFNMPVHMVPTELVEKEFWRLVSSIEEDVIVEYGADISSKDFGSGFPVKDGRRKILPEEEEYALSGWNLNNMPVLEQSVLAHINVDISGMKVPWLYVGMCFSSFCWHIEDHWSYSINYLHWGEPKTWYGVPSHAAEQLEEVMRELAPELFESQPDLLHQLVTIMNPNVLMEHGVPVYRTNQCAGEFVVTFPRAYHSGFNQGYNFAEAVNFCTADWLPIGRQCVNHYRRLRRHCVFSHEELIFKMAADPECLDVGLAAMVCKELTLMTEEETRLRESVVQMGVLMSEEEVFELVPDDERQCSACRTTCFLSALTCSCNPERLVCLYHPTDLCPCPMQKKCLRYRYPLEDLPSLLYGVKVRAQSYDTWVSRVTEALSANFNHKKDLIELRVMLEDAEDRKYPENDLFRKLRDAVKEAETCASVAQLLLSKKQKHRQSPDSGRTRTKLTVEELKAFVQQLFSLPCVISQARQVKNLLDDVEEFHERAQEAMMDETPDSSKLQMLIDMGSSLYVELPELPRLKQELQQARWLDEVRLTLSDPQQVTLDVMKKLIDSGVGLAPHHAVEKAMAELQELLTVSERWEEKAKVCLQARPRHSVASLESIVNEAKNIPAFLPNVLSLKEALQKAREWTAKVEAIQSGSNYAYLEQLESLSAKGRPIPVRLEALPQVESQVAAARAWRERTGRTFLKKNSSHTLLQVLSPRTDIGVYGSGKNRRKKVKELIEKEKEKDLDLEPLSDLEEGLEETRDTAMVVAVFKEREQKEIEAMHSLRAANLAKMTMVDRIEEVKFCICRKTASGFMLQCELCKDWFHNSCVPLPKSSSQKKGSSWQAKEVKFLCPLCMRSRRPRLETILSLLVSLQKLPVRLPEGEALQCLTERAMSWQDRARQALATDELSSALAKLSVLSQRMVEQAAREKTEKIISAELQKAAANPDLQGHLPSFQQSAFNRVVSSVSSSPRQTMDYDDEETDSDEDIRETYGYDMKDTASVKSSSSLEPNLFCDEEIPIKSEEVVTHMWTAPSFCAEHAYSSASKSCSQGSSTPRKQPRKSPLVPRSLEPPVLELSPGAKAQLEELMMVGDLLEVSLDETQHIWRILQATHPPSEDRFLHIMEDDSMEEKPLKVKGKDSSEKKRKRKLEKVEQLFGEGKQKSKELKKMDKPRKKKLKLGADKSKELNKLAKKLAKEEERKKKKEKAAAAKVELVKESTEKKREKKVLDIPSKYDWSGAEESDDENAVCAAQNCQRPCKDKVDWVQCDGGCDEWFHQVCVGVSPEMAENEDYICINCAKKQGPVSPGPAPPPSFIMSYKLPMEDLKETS

As for `Cc1cc(-c2ccsc2)cc(C2CCN(C(=O)c3cc(C(C)C)n[nH]3)C2)n1` (stereo not drawn) [Example 74], the IC50 worked out at 0.22 nM.
The value for `CCCC(=O)NC1CCN(C(=O)c2cc(C(C)C)n[nH]2)C1` (stereo not drawn) [Example 124] was 0.15 nM; that for `CCc1cccn([C@@H]2CCN(C(=O)c3cc(C(C)C)n[nH]3)C2)c1=O` [Example 43, (R)-3-ethyl-1-(1-(3-isopropyl-1H-pyrazole-5-carbonyl)pyrrolidin-3-yl)pyridin-2(1H)-one] was 0.039 nM; that for `CC(C)c1cc(C(=O)N2CCC(NC(=O)c3ccccc3OCCO)C2)[nH]n1` (stereo not drawn) [Example 185] was 0.11 nM.
The value for `CC(C)c1cc(C(=O)N2CCC(NC(=O)C3CNC3)C2)[nH]n1` (stereo not drawn) [Example 118] was 5.2 nM; that for `CCOc1ccccc1C(=O)NC1CCN(C(=O)c2cc(C(C)C)n[nH]2)C1` (stereo not drawn) [Example 129] was 0.047 nM.
The value for `Cc1cc(-c2cnn(C)c2)cc([C@@H]2CCN(C(=O)c3cc(C(C)C)n[nH]3)C2)n1` (single isomer, unassigned) [Example 2] was 0.84 nM; that for `CC(C)CC(=O)NC1CCN(C(=O)c2cc(C(C)C)n[nH]2)C1` (stereo not drawn) [Example 125] was 0.32 nM; that for `COCC1(C(=O)NC2CCN(C(=O)c3cc(C(C)C)n[nH]3)C2)CC1` (stereo not drawn) [Example 192] was 0.58 nM.
`Nc1cc(C(=O)N2CCC(NC(=O)C3CC3)C2)[nH]n1` (stereo not drawn) [Example 209] gave an IC50 of 17 nM.
As for `CC(C)c1cc(C(=O)N2CCC(NC(=O)Oc3ccccc3)C2)[nH]n1` (stereo not drawn) [Example 116], the figure is 2.1 nM; as for `Cc1cc(-c2ccn(C)n2)cc(C2CCN(C(=O)c3cc(C(C)C)n[nH]3)C2)n1` (stereo not drawn) [Example 93], 0.79 nM.
The value for `COCC(=O)NC1CCN(C(=O)c2cc(C(C)C)n[nH]2)C1` (stereo not drawn) [Example 127] was 0.42 nM; that for `Cc1cc(-c2cnn(C)c2)cc(C2=CCN(C(=O)c3cc(C(C)C)n[nH]3)C2)n1` [Example 108] was 18 nM; that for `CC(C)c1cc(C(=O)N2CCC(NC(=O)c3ccc4[nH]ccc4c3)C2)[nH]n1` (stereo not drawn) [Example 121] was 0.066 nM.
As for `Cc1nn(C2CCN(C(=O)c3cc(C(C)C)n[nH]3)C2)cc1-c1ccccc1` (stereo not drawn) [Example 236], the figure is 0.32 nM; as for `O=C(NC1CCN(C(=O)c2cc(Br)n[nH]2)C1)C1CC1` (stereo not drawn) [Example 205], 14 nM; as for `CC(C)c1cc(C(=O)N2CCC(NC(=O)C3(C#N)CC3)C2)[nH]n1` (stereo not drawn) [Example 193], 0.41 nM.
`CC(C)c1cc(C(=O)N2CCC(NC(=O)Nc3ccccc3)C2)[nH]n1` (stereo not drawn) [Example 114] had an IC50 of 0.28 nM.
The value for `Cc1cc(C(=O)N2CCC(c3cc(-c4cnn(C)c4)cc(C)n3)C2)[nH]n1` (stereo not drawn) [Example 44] was 2.7 nM.
As for `CC(C)c1cc(C(=O)N2CC[C@@H](n3cccc(C(C)C)c3=O)C2)[nH]n1` [Example 42, (R)-3-isopropyl-1-(1-(3-isopropyl-1H-pyrazole-5-carbonyl)pyrrolidin-3-yl)pyridin-2(1H)-one], the figure is 0.082 nM; as for `CC(C)c1cc(C(=O)N2CCC(NC(=O)C3CCCCC3)C2)[nH]n1` (stereo not drawn) [Example 145], 1.9 nM; as for `Cc1cc(-c2cnn(CCO)c2)cc(C2CCN(C(=O)c3cc(C(C)C)n[nH]3)C2)n1` (stereo not drawn) [Example 91], 0.41 nM.
Molecule `Cc1cc(-c2ccccc2C)cc(C2CCN(C(=O)c3cc(C(C)C)n[nH]3)C2)n1` (stereo not drawn) [Example 66] registered an IC50 of 0.25 nM.
As for `Cc1cc(-c2cnn(C(C)C)c2)cc(C2CCN(C(=O)c3cc(C(C)C)n[nH]3)C2)n1` (stereo not drawn) [Example 97], the IC50 was determined as 0.5 nM.
With `Cc1cc(-c2ccoc2)cc(C2CCN(C(=O)c3cc(C(C)C)n[nH]3)C2)n1` (stereo not drawn) [Example 70], it took 0.27 nM to reach half-maximal inhibition (IC50).
As for `Cc1cc(-c2cccc(Cl)c2)cc(C2CCN(C(=O)c3cc(C(C)C)n[nH]3)C2)n1` (stereo not drawn) [Example 84], the figure is 0.4 nM.
